Marks after values point to notes of the source that are not given here.
What was measured:
Female Wistar rats = assay: Gentamicin-induced kidney damage in rats: survival, body weight, serum and urine biochemical measurements
Procedure: (§1) Female Wistar rats were used weighing 200-250 g. The animals were allocated under controlled environmental conditions in individual metabolic cages, for individual urine sample collection every 24 hours. Normal feed and water were administered ad libitum. […] On day 7, the animals were anaesthetised with sodium pentobarbital and the kidneys were perfused by the aorta with saline (0.9% NaCl) to eliminate the blood. The kidneys were immediately dissected. One was frozen in liquid nitrogen and subsequently kept at −80° C. for Western blot studies, and the other was soaked in p-formaldehyde at 3.7% for histological studies. Blood samples were also obtained in heparinised capillaries at different time points by a small incision in the tail tip. Blood was centrifuged and serum was kept at −80° C. until use. Urine was cleared by centrifugation at 10,000 g and 4° C. during 10 minutes, and kept at −80° C. until use.
Serum and urinary creatinine and urea nitrogen concentration were measured using commercial reactive strips (Roche Diagnostics) and the Reflotron® automated analyser (Roche Diagnostics). […] Urine protein concentration was measured by the Bradford method (Bradford, 1976. Anal Biochem, 72: 248-254). Urine NAG content was indirectly determined by the level of NAG activity. NAG enzymatic activity was determined by a colorimetric method based on the conversion of 3-cresolsulfonphthaleinyl-N-acetyl-D-glucosaminide into the purple 3-cresol-cresolsulfonphthaleinyl, measured at 580 nm using a plate photometer (Thermo). To measure NAG activity a commercial kit was used (Roche Diagnostics) following the manufacturer's instructions.

Kidney sections = assay: Renal histopathological study (hematoxilin and eosin stained kidney sections); assay type: in vivo, rat; details: rats
Procedure: (§2) Female Wistar rats were used weighing 200-250 g. […] Normal feed and water were administered ad libitum. […] The kidneys were immediately dissected.
The kidneys were kept in p-formaldehyde all night at 4° C. Next, paraffin blocks were made and 5-μm tissue sections were cut and stained with hematoxilin and eosin. Photographs were taken under an Olympus BX51 microscope connected to an Olympus DP70 colour digital camera.

reg IIIb [1] = assay: Western blot analysis of reg IIIb in urine and serum of treated rats
Procedure: Female Wistar rats were used weighing 200-250 g. The animals were allocated under controlled environmental conditions in individual metabolic cages, for individual urine sample collection every 24 hours. Normal feed and water were administered ad libitum. […] On day 7, the animals were anaesthetised with sodium pentobarbital and the kidneys were perfused by the aorta with saline (0.9% NaCl) to eliminate the blood. The kidneys were immediately dissected. One was frozen in liquid nitrogen and subsequently kept at −80° C. for Western blot studies, and the other was soaked in p-formaldehyde at 3.7% for histological studies. Blood samples were also obtained in heparinised capillaries at different time points by a small incision in the tail tip. Blood was centrifuged and serum was kept at −80° C. until use. Urine was cleared by centrifugation at 10,000 g and 4° C. during 10 minutes, and kept at −80° C. until use. […]

gelsolin [2] = assay: Western blot analysis of gelsolin in urine and serum of treated rats
Procedure: as §1
Western blots were run with (i) urine samples (21 μl per sample), (ii) tissue extracts (100 μg total protein per sample) prepared by homogenizing the kidneys with a tissue mixer (Ultra-Turrax T8, IKA®-Werwe) at 4° C. in homogenization buffer (140 mM NaCl, 20 mM Tris-HCl pH=7.5, […] ethylenediaminetetraacetic acid—EDTA-, 10% glycerol, 1% Igepal CA-630, 1 μg/mL aprotinin, 1 μg/mL leupeptin, 1 μg/mL pepstatin A, 1 mM phenylmethylsulphonyl fluoride—PMSF—), or (iii) albumin-free blood serum. Albumin was removed from serum with a column-based, commercial kit based on the immunological retention of rat albumin (Qproteome Murine Albumin Depletion Kit, Quiagen). Samples were separated by electrophoresis in 10-15% acrylamide gels (Mini Protean II system, BioRad). Immediately, proteins were electrically transferred to an Immobilon-P membrane (Millipore). Membranes were probed with antibodies against KIM-1 (R&D Systems), bone morphogenetic protein 7 (BMP-7, Santa Cruz Biotechnology), NGAL (MBL), PAI-1 (BD Biosciences), reg IIIb (R&D Systems), and gelsolin (Santa Cruz Biotechnology).

reg IIIb [3] = assay: Renal tissue gene expression by RT-PCR, reg IIIb; assay type: in vivo, rat; details: as early as on day 3, highest on day 6 (FIG. 8-A)
Procedure: as §2
(§3) RT-PCR-amplification of reg IIIb, gelsolin and GAPDH was performed with the next primers: for rat reg IIIb, SEQ ID NO: 15 and SEQ ID NO: 16; for rat gelsolin, SEQ ID NO: 17 and SEQ ID NO: 18; for rat glyceraldehyde 3-phosphate dehydrogenase (GAPDH), SEQ ID NO: 19 and SEQ ID NO: 20. PCR conditions were: 1×(95° C.×4 min); 30×(95° C.×1 min+Tm×1 min); 1×72° C.×10 min); where Tm was 55.5° C. for reg IIIb, 55.0° C. for gelsolin, and 55.9° C. for GAPDH.

gelsolin [4] = assay: Renal tissue gene expression by RT-PCR, gelsolin; assay type: in vivo, rat; details: 3 and 6 days treatment (FIG. 8)
Procedure: as §2, §3

[5] = Leehey D J et al., 1993; cited from earlier work
[6] = rats, gentamicin i.p. 150 mg/kg, after 7 days treatment

Molecule | Proteinuria (Female Wistar rats; [6]) | Urine flow (Female Wistar rats; [6]) | Δ Weight (body weight as a percentage of the initial weight) (Female Wistar rats; [6]) | Renal histopathology after 3 days of treatment (Kidney sections; after 3 days of treatment (FIG. 7)) | Renal histopathology at end of treatment (Kidney sections; hematoxilin-eosin, end of treatment (FIG. 2)) | Day on which reg IIIb appears in the urine (reg IIIb [1]; rats, time course of treatment, Western blot (FIG. 7)) [days] | Urinary level of reg IIIb (reg IIIb [1]; urine of rats with overt renal failure, Western blot (FIG. 6-A)) | Full length gelsolin band in urine (gelsolin [2]; urine of rats with overt renal failure, Western blot (FIG. 6)) | Renal reg IIIb gene expression (reg IIIb [3]) | Renal expression pattern of gelsolin (gelsolin [4]) | Proportion of treatments in which nephrotoxicity appears [5] | Renal failure (serum creatinine concentration and BUN) (Female Wistar rats; rat, in vivo) | Full length gelsolin band in urine (gelsolin [2]; rat, in vivo) | ~43 kDa gelsolin fragment (t-gelsolin) band in urine (gelsolin [2]; rat, in vivo)
gentamicin | 40 ± 7.4^a mg/day | 18 ± 3^a mL/day | 95 ± 3^a % | no findings of tubular damage | clear tubular necrosis | 4 | markedly increased | induces the appearance | induces an increase | does not modify | 10-25% |  |  | 
N.N.[Cl][Pt][Cl] [cisplatin] |  |  |  |  |  |  |  |  |  |  |  | developed an overt renal failure | absent in the urine from all of the rats treated with cisplatin, except for one of them | common to both gentamicin and cisplatin groups

— US20120220480A1, “METHOD FOR THE DETECTION OF RENAL DAMAGE” (UNIVERSIDAD DE SALAMANCA, priority 2009, published 2012)
